Data reported in the NIST ThermoML archive (doi:10.1016/j.jct.2018.07.020).
Values joined by “and” are separate entries in the source; they are usually repeats but may differ in a detail not shown here. Identical values can stand only once.

Assays:
[1] = for vapor or sublimation pressure: Transpiration method; for Normal melting temperature: DTA
[2] = Boiling temperature at pressure P; settings: Liquid, Distillation
[3] = Molar enthalpy of transition or fusion; settings: Crystal; DSC

c1ccc2[nH]ncc2c1 [1,2-diazaindene]
[1], Crystal
Settings | vapor or sublimation pressure
323.3 K | 0.00069 kPa
326.3 K | 0.00098 kPa
330.3 K | 0.00152 kPa
331.3 K | 0.00161 kPa
336.3 K | 0.00272 kPa
338.3 K | 0.00329 kPa
341.3 K | 0.00443 kPa
343.3 K | 0.00515 kPa and 0.00524 kPa
345.2 K | 0.00661 kPa
346.3 K | 0.00723 kPa
348.3 K | 0.00826 kPa
350.3 K | 0.01023 kPa
353.2 K | 0.01343 kPa
356.2 K | 0.01763 kPa
358.2 K | 0.0211 kPa
361.2 K | 0.02725 kPa

c1cn[nH]c1 [1H-pyrazole]
[1], Crystal
Settings | vapor or sublimation pressure [kPa]
308.4 K | 0.0499
310.8 K | 0.0628
313.4 K | 0.08
315.8 K | 0.1
318.2 K | 0.1258
323.3 K | 0.189
328.3 K | 0.287
330.9 K | 0.3495
333.3 K | 0.4255
335.8 K | 0.5187
338.3 K | 0.6278

Cc1cc[nH]n1 [3-methylpyrazole]
[1], Liquid
Settings | vapor or sublimation pressure [kPa]
306.3 K | 0.0252
308.7 K | 0.0308
311.2 K | 0.0369
313.8 K | 0.0443
316.3 K | 0.0568
318.2 K | 0.063
321.2 K | 0.0821
323.8 K | 0.0978
326.2 K | 0.1165
328.8 K | 0.142
333.2 K | 0.1924

c1ccc(Cn2cccn2)cc1 [1-benzylpyrazole]
Settings | Boiling temperature at pressure P [°C]
[2], 0.6 kPa | 109

[1], Liquid
Settings | vapor or sublimation pressure
298.2 K | 0.00147 kPa
310.2 K | 0.0043 kPa
314.2 K | 0.00615 kPa
318.2 K | 0.00882 kPa
322.2 K | 0.0119 kPa
326.2 K | 0.0166 kPa and 0.0168 kPa
330.2 K | 0.0225 kPa
334.2 K | 0.0311 kPa
338.2 K | 0.0421 kPa
342.2 K | 0.0559 kPa
346.2 K | 0.0713 kPa
350.2 K | 0.0969 kPa
354.2 K | 0.1228 kPa
358.2 K | 0.159 kPa

Cc1cc(C)[nH]n1 [3,5-dimethylpyrazole]
Settings | Molar enthalpy of transition or fusion [kJ/mol]
[3] | 16.1

[1], Crystal
Settings | vapor or sublimation pressure [kPa]
323.3 K | 0.0136
325.9 K | 0.0179
326.3 K | 0.019
328.3 K | 0.0224
330.3 K | 0.028
333.3 K | 0.0361
333.5 K | 0.0368
336.3 K | 0.0473
338.2 K | 0.0538
343.3 K | 0.0846
345.7 K | 0.1033
348.3 K | 0.1257
350.7 K | 0.1591
350.8 K | 0.1585
353.2 K | 0.1955
354.3 K | 0.2107
356.4 K | 0.2524

Settings | Normal melting temperature [°C]
[1], Crystal | 109.1

Cc1cn[nH]c1 [4-methylpyrazole]
[1], Liquid
Settings | vapor or sublimation pressure [kPa]
296 K | 0.0098
301 K | 0.0149
305.9 K | 0.0226
310.8 K | 0.0339
315.8 K | 0.0494
320.9 K | 0.0719
325.7 K | 0.099
330.6 K | 0.1457
335.6 K | 0.2071
340.6 K | 0.2879

Cn1cccn1 [1-methyl-1H-pyrazole]
[1], Liquid
Settings | vapor or sublimation pressure [kPa]
273.4 K | 0.3007
276.4 K | 0.3722
277.2 K | 0.3818
278.7 K | 0.4304
281.6 K | 0.5225
281.8 K | 0.5148
283.3 K | 0.5843
284.6 K | 0.6386
286.5 K | 0.7077
287.8 K | 0.7821
288.3 K | 0.8074
290.5 K | 0.9287
291.4 K | 0.9834
292.5 K | 1.077
294.4 K | 1.195
296.5 K | 1.365
297.4 K | 1.456
298.8 K | 1.576
302.4 K | 1.989
304.7 K | 2.313
306.6 K | 2.528
308.2 K | 2.753

c1ccc(-n2cccn2)cc1 [1-phenylpyrazole]
[1], Liquid
Settings | vapor or sublimation pressure [kPa]
294.2 K | 0.00258
295.2 K | 0.00284
297.2 K | 0.00324
303.2 K | 0.00556
309.1 K | 0.00913
315 K | 0.01461
320.9 K | 0.02221
327 K | 0.03352
332.8 K | 0.05146
338.9 K | 0.07723
344.9 K | 0.1082
350.8 K | 0.1589
354.8 K | 0.2072
360.8 K | 0.2918

CCn1cccn1 [1-ethylpyrazole]
Settings | Boiling temperature at pressure P [°C]
[2], 7.2 kPa | 60

[1], Liquid
Settings | vapor or sublimation pressure
275.2 K | 0.1828 kPa and 0.1776 kPa
279.2 K | 0.2485 kPa
280.2 K | 0.2616 kPa
283.2 K | 0.3347 kPa
285.2 K | 0.3759 kPa
287.2 K | 0.4482 kPa
290.2 K | 0.5448 kPa
291.2 K | 0.5877 kPa
294.2 K | 0.7128 kPa
295.2 K | 0.7543 kPa
298.2 K | 0.9478 kPa
300.2 K | 1.073 kPa
302.2 K | 1.237 kPa
303.2 K | 1.3 kPa
305.2 K | 1.539 kPa
306.2 K | 1.63 kPa
311.2 K | 2.194 kPa

Cc1cc(C)n(C)n1 [1,3,5-trimethylpyrazole]
Settings | Molar enthalpy of transition or fusion [kJ/mol]
[3] | 17.6

[1]
Settings | vapor or sublimation pressure
282 K, Crystal | 0.0479 kPa
284 K, Crystal | 0.0583 kPa
287 K, Crystal | 0.0816 kPa
288.7 K, Crystal | 0.0998 kPa
291.7 K, Crystal | 0.1348 kPa
293.8 K, Crystal | 0.1707 kPa
296.7 K, Crystal | 0.2266 kPa
298.7 K, Crystal | 0.2751 kPa and 0.2814 kPa
301.7 K, Crystal | 0.376 kPa
301.9 K, Crystal | 0.3776 kPa
303 K, Crystal | 0.4153 kPa
303.9 K, Crystal | 0.4496 kPa
306.8 K, Crystal | 0.5927 kPa
315.6 K, Liquid | 0.934 kPa
320.8 K, Liquid | 1.297 kPa
325.7 K, Liquid | 1.793 kPa
326.4 K, Liquid | 1.878 kPa
330.5 K, Liquid | 2.376 kPa
331.4 K, Liquid | 2.585 kPa
334.1 K, Liquid | 2.995 kPa
336 K, Liquid | 3.202 kPa
336.4 K, Liquid | 3.436 kPa
338.9 K, Liquid | 3.803 kPa
341.4 K, Liquid | 4.545 kPa
343.4 K, Liquid | 4.993 kPa
346.4 K, Liquid | 5.866 kPa

Settings | Normal melting temperature [°C]
[1], Crystal | 39.4
